Measurements taken from ChEMBL document CHEMBL1201862, “PubChem BioAssay data set” (2004).
Each block holds one compound with its values, some of them ahead of it. Calls of active or inactive are those of the source.

Experiments:
[1] = target: T1, Short transient receptor potential channel 4 (Mus musculus, UniProt Q9QUQ5); assay: block of DAMGO-driven TRPC4 calcium entry – cell-based, HEK293 TRPC4/mu-opioid, Fluo-4 calcium, dose response (AID 434942); format: functional;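 further: potency of inhibitors blocking the TRPC4 calcium response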
T1 sequence (Q9QUQ5 whole entry): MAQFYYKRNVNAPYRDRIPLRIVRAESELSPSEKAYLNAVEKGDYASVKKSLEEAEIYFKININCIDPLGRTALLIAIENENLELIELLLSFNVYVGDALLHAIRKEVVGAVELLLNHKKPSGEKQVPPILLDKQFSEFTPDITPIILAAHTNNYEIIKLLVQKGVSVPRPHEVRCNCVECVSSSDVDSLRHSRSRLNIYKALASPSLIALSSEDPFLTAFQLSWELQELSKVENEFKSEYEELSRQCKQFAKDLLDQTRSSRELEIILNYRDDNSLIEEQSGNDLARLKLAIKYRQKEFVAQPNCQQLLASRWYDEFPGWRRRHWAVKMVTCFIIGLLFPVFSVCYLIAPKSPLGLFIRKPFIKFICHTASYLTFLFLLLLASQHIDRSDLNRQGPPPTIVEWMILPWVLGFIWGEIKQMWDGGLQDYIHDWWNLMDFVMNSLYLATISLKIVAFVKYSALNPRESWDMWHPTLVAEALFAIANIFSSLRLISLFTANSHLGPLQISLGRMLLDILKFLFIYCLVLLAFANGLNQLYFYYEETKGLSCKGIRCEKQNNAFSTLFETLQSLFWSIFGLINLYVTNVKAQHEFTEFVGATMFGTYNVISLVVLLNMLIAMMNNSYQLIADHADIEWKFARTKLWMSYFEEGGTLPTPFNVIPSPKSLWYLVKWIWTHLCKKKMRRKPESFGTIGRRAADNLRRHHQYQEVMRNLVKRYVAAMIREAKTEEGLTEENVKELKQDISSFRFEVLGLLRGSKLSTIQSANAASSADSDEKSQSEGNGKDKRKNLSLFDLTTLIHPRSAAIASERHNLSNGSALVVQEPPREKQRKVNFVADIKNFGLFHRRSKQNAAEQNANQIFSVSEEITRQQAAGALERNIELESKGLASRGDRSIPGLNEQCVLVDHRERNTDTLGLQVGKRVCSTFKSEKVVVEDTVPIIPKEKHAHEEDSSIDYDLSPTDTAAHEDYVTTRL

[2] = target: T2, Heat shock factor protein 1 (Mus musculus, UniProt P38532); assay: decrease of HSF1-responsive luciferase luminescence – cell-based, NIH3T3, dose retest, confirmation (AID 2382); format: functional;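 further: NIH3T3 fibroblasts with HSF1-driven luciferase reporter stressed by proteasome inhibitor MG132; luminescence from HSF1-driven luciferase expression after 8 hours of MG132 stress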
T2 sequence (P38532 whole entry): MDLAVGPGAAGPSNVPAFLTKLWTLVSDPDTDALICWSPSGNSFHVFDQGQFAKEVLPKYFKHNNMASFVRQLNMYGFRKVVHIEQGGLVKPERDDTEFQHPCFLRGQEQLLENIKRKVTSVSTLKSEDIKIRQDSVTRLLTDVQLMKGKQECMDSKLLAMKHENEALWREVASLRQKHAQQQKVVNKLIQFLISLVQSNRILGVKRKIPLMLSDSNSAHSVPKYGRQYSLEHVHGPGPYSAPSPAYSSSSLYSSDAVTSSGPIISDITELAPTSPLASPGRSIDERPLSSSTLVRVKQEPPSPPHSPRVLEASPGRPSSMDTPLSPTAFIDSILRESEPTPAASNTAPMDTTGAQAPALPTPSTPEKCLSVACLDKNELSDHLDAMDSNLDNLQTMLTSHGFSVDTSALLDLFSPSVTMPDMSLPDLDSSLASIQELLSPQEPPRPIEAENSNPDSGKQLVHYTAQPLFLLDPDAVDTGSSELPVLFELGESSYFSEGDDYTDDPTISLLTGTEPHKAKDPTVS

NADPH oxidase 1 [3] = target: T3, NADPH oxidase 1 (Homo sapiens, UniProt Q9Y5S8); assay: Luminescence-based cell-based dose response assay to identify inhibitors of NADPH oxidase 1 (NOX1).; format: functional
T3 sequence (Q9Y5S8 whole entry): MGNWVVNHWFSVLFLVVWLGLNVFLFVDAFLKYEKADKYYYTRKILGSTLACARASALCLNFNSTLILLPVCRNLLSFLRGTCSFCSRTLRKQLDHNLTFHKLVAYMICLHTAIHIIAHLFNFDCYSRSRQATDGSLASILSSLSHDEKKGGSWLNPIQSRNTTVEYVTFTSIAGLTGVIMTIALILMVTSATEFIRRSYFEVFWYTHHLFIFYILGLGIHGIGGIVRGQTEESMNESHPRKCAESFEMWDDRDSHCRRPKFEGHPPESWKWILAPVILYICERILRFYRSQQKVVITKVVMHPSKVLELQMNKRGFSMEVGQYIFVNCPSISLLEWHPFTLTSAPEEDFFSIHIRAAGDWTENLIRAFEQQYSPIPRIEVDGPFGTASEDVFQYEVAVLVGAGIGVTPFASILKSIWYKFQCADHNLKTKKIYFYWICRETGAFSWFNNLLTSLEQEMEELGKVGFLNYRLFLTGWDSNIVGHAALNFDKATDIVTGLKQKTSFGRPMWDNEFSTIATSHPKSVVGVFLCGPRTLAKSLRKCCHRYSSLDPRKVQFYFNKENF

NADPH oxidase 1 [4] = target: T3, NADPH oxidase 1; assay: Late-stage luminescence-based cell-based dose response assay to identify inhibitors of NADPH oxidase 1 (NOX1): Synthesized analogs.; format: functional
[5] = target: T4, Heat shock 70 kDa protein 1A (Homo sapiens, UniProt P0DMV8); assay: small molecules displacing fluorescent ligand from Hsp70 – biochemical, fluorescence polarization, primary screen (AID 583)
T4 sequence (P0DMV8 whole entry): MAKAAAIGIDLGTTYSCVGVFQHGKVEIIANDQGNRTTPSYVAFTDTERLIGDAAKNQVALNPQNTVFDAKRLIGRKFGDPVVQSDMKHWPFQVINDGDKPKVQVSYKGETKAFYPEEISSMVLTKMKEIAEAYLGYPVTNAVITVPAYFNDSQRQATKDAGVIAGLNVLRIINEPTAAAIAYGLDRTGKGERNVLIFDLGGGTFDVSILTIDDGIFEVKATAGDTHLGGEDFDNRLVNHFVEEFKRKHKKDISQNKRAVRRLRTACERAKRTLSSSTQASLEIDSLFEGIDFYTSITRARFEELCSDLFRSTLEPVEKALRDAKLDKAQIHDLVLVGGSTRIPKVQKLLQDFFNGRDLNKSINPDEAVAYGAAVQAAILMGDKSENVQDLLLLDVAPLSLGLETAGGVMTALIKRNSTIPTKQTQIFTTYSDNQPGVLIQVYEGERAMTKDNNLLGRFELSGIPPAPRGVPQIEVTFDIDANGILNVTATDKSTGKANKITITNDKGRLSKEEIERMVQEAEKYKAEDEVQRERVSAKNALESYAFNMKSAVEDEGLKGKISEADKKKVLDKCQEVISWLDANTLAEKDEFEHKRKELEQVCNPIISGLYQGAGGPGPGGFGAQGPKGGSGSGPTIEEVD

[6] = target: T4, Heat shock 70 kDa protein 1A; assay: small-molecule inhibition of Hsp70 – biochemical, TR-FRET (AID 786)
[7] = target: T5, Microphthalmia-associated transcription factor (Homo sapiens, UniProt O75030); assay: reducers of TRPM1 reporter luminescence, concentration series – cell-based, SK-MEL-5, cherry-picked, set 3, MITF inhibitor project, dose response (AID 493073); format: functional;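 further: SK-MEL-5 melanoma cells with luciferase driven by the MITF target TRPM1 promoter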
T5 sequence (O75030 whole entry): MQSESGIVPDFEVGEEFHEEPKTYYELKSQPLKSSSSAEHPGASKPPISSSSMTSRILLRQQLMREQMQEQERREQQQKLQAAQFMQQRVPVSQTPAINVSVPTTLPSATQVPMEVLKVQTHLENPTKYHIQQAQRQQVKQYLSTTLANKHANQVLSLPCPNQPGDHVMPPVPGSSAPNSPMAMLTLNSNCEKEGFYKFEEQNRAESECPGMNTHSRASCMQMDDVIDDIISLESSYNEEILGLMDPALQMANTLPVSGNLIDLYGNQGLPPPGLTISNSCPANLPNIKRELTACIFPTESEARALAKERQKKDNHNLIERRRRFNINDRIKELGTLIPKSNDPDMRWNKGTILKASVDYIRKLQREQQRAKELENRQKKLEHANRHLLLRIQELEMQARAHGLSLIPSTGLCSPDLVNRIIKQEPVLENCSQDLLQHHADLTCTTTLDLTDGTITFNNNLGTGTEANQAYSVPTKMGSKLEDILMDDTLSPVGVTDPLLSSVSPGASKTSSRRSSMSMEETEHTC

HEK293 [8] = assay: HEK293T cell viability loss, resazurin readout – resazurin fluorescence, cytotoxicity control for NF-kB activator project, SAR follow-up (AID 493251); format: functional, cell-based; details: Homo sapiens
HeLa = assay: Cytotoxicity counterscreen assay for transcriptional activators of heat shock protein 70 (Hsp70). [Related pubchem assays: 1203, 1252 ]; format: functional; details: Homo sapiens;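 further: cells exposed to compound for 16 hours before readout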
Jurkat = assay: SAR Analysis of small molecule inhibitors of T-cell specific antigen receptor-induced NF-kB activation in a Jurkat cell line using a luminescence assay - Set 2. [Related pubchem assays (depositor defined):AID435003, AID435012, AID465]; format: functional, cell-based; details: Homo sapiens
HEK293 [9] = assay: SAR Analysis of small molecule inhibitors of T-cell specific antigen receptor-induced NF-kB activation in a HEK-293T cell line using a luminescence assay - Set 2. [Related pubchem assays (depositor defined):AID435003, AID435012, AID489026]; format: functional, cell-based; details: Homo sapiens

EC50 [1]: 7.5 µM (active) | EC50 [2]: > 195 µM (not active) | IC50 (NADPH oxidase 1 [3]): 1 µM (active) | IC50 (NADPH oxidase 1 [4]): 2.36 µM (active)
SMILES: CC(=O)c1ccc2c(c1)N(C)c1ccccc1S2

IC50 [5]: > 100 µM (not active) | IC50 [6]: > 100 µM (not active)
SMILES: Cc1ccnc2c(N3C(=O)C4C5C=CC(C5)C4(C)C3=O)cccc12 (stereo unspecified)

SMILES: O=C(Nc1ccc(N2CCCC2)c(Cl)c1)c1ccc([N+](=O)[O-])o1
AC50 [7]: 11.1 µM (active) | IC50 (HEK293 [8]): 42 µM (inactive) | CC50 (HeLa): 5.12 µM (active) | IC50 (Jurkat): 17.8 µM (active) | IC50 (HEK293 [9]): 33.9 µM (inactive)
